The values below come from patent US7179825B2, “Retinoic acid mimetic anilides” (Janssen Pharmaceutica N.V., priority 1997, dated 2007).

Bounds are passed on as bounds.

Experiment [1] deals with metabolism of retinoic acid in human breast cancer cells. In words: Inhibition of retinoic acid (RA) metabolism (Example C.1). It is filed as cell-based. Conditions: MCF-7 human breast cancer cells, 3H-RA as substrate, concentration needed to reduce the amount of metabolites to 50% of the control. The method in brief:
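MCF-7 cells, pre-stimulated with RA the day before, incubated with ³H-RA substrate and test compound in 1% DMSO. Polar ³H-metabolites separated from unmetabolized RA and counted by scintillation. IC50 is the concentration cutting metabolite formation to 50% of control, with blank run alongside.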

A further experiment deals with Ovariectomized rats. The experiment can be described thus: Vaginal keratinization test on ovariectomized rats (Example C.2). It is filed as in vivo. Conditions: estradiol undecylate induced keratinization, per os once daily on days 1-3, active dose = 50% of rats show complete suppression. The method in brief:
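Ovariectomized rats given s.c. estradiol undecylate (100 μg per 100 g body weight in sesame oil), then oral compound once daily on days 1-3 (vehicle PEG 200). Vaginas assessed histologically one day after last dose; lowest active dose (mg/kg) is the dose giving complete keratinization suppression in 50% of rats.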

For `CCC(CC)C(c1ccc(NC(=O)Nc2ccccc2F)cc1)n1ccnc1` (racemic) [Compound 713], the IC50 in experiment [1] came out at 1.38 nM. For the same molecule, in the experiment on Ovariectomized rats, the “LAD (lowest active dose)” value is 2.50 mg/kg.

With `CCC(CC)C(c1ccc(NC(=O)Nc2ccccc2F)cc1)n1cncn1` (racemic) [Compound 715], the IC50 in experiment [1] stood at 0.154 nM. The “LAD (lowest active dose)” value in the experiment with Ovariectomized rats is given as above 2.50 mg/kg.

For the molecule `CCC(CC)C(c1ccc(NC(=O)Nc2ccc(OC)c(OC)c2)cc1)n1cncn1` (racemic) [Compound 718], the IC50 in experiment [1] was 0.133 nM. Moreover, the “LAD (lowest active dose)” value with Ovariectomized rats is 2.50 mg/kg.

Regarding `COc1ccc(NC(=O)Nc2ccc(C(C(C)C)n3ccnc3)cc2)cc1` (racemic) [Compound 722], the IC50 in experiment [1] stood at 4.14 nM. Also, in the experiment on Ovariectomized rats, the “LAD (lowest active dose)” value came out at 5.00 mg/kg.

Consider `CCC(CC)C(c1ccc(NC(=O)Nc2cccc(F)c2)cc1)n1cncn1` (racemic) [Compound 723], for which the IC50 in experiment [1] is 1.13 nM. Besides, the “LAD (lowest active dose)” value with Ovariectomized rats was found to be 5.00 mg/kg.

As to `CCC(CC)C(c1ccc(NC(=O)Nc2cccc(F)c2)cc1)n1ccnc1` (racemic) [Compound 724], in experiment [1], the IC50 worked out at 1.18 nM. Besides, in the experiment on Ovariectomized rats, the “LAD (lowest active dose)” value amounted to 2.50 mg/kg.

With `CC(C)C(c1ccc(NC(=O)Nc2cccc(F)c2)cc1)n1cncn1` (racemic) [Compound 725], the concentration for half-maximal inhibition (IC50) in experiment [1] was determined as 3.29 nM. Besides, the “LAD (lowest active dose)” value in the experiment with Ovariectomized rats was found to be 5.00 mg/kg.

As for `CC(C)C(c1ccc(NC(=O)Nc2ccccc2F)cc1)n1ccnc1` (racemic) [Compound 726], the IC50 in experiment [1] is 3.71 nM. The “LAD (lowest active dose)” value with Ovariectomized rats is reported as 5.00 mg/kg.

For `CC(C)C(c1ccc(NC(=O)Nc2cccc(N)c2)cc1)n1ccnc1` (racemic) [Compound 727], the IC50 in experiment [1] is 1.64 nM. The “LAD (lowest active dose)” value in the experiment with Ovariectomized rats is above 10.00 mg/kg.

As for `CC(C)C(c1ccc(NC(=O)Nc2cc(F)ccc2F)cc1)n1ccnc1` (racemic) [Compound 728], the IC50 in experiment [1] is 1.41 nM. Also, the “LAD (lowest active dose)” value in the experiment on Ovariectomized rats is on record as 5.00 mg/kg.

With `O=C(Nc1ccc(C(c2cccc(C(F)(F)F)c2)n2ccnc2)cc1)Nc1cccc(F)c1` (racemic) [Compound 729], the IC50 in experiment [1] is above 100 nM. Besides, the “LAD (lowest active dose)” value in the experiment with Ovariectomized rats was found to be 2.50 mg/kg.

As for `CC(C)C(c1ccc(NC(=O)Nc2cccc(C(F)(F)F)c2)cc1)n1ccnc1` (racemic) [Compound 730], in experiment [1], the IC50 stood at 15.9 nM. The “LAD (lowest active dose)” value in the experiment on Ovariectomized rats is above 10.00 mg/kg.

`CC(C)C(c1ccc(NC(=O)Nc2ccc(Cl)c(Cl)c2)cc1)n1ccnc1` (racemic) [Compound 732]: the IC50 in experiment [1] turned out to be 19.3 nM. The “LAD (lowest active dose)” value with Ovariectomized rats is reported as above 10.00 mg/kg.

As to `COc1cccc(NC(=O)Nc2ccc(C(C(C)C)n3ccnc3)cc2)c1` (racemic) [Compound 733], in experiment [1], the IC50 was determined as 2.41 nM. For the same molecule, the “LAD (lowest active dose)” value in the experiment with Ovariectomized rats is above 10.00 mg/kg.

Take `CC(C)C(c1ccc(NC(=O)Nc2ccc(F)cc2F)cc1)n1ccnc1` (racemic) [Compound 734]: in experiment [1], the IC50 was determined as 2.25 nM. In the experiment on Ovariectomized rats, the “LAD (lowest active dose)” value is on record as 10.00 mg/kg.

Consider `O=C(Nc1ccc(C(c2ccccc2)n2ccnc2)cc1)Nc1cccc(F)c1` (racemic) [Compound 735], for which the IC50 in experiment [1] is above 100 nM. Besides, the “LAD (lowest active dose)” value in the experiment with Ovariectomized rats is reported as 10.00 mg/kg.

With `Cc1cccc(NC(=O)Nc2ccc(C(C(C)C)n3ccnc3)cc2)c1` (racemic) [Compound 736], the IC50 in experiment [1] is 7.45 nM. The “LAD (lowest active dose)” value with Ovariectomized rats is recorded as above 10.00 mg/kg.

Turning to `CC(C)C(c1ccc(NC(=O)Nc2cccc([N+](=O)[O-])c2)cc1)n1ccnc1` (racemic) [Compound 737], the IC50 in experiment [1] stood at 2.36 nM. In the experiment with Ovariectomized rats, the “LAD (lowest active dose)” value is on record as above 10.00 mg/kg.

For `CC(C)C(c1ccc(NC(=O)Nc2cccc(Cl)c2)cc1)n1ccnc1` (racemic) [Compound 738], the IC50 in experiment [1] was determined as 2.03 nM. In addition, in the experiment on Ovariectomized rats, the “LAD (lowest active dose)” value was found to be 10.00 mg/kg.

Turning to `CC(C)C(c1ccc(NC(=O)Nc2ccc(Cl)cc2)cc1)n1ccnc1` (racemic) [Compound 739], the IC50 in experiment [1] turned out to be 42.1 nM. Further, in the experiment on Ovariectomized rats, the “LAD (lowest active dose)” value was above 10.00 mg/kg.

Consider `CC(C)C(c1ccc(NC(=O)Nc2ccc(F)cc2)cc1)n1ccnc1` (racemic) [Compound 740, (±)-N-(4-fluorophenyl)-N′-[4-[1-(1H-imidazol-1-yl)-2-methylpropyl]phenyl]urea], for which, in experiment [1] (MCF7), the IC50 worked out at 1.29 nM. The minimal effective dose in the experiment on Ovariectomized rats (Rattus norvegicus, po, read-out: LAD (lowest active dose)) stood at 20 mg/kg.

As to `CC(C)C(c1ccc(NC(=O)Nc2cccc(F)c2)cc1)n1ccnc1` (racemic) [Compound 741], the IC50 in experiment [1] worked out at 1.44 nM. Besides, the “LAD (lowest active dose)” value in the experiment on Ovariectomized rats was 10.00 mg/kg.

On to `CC(C)C(c1ccc(NC(=O)Nc2ccccc2)cc1)n1ccnc1` (racemic) [Compound 742], for which the IC50 in experiment [1] was 0.261 nM. Further, in the experiment on Ovariectomized rats, the “LAD (lowest active dose)” value turned out to be 10.00 mg/kg.

Regarding `CCCCC(c1ccc(NC(=O)/C(C)=C/c2ccccc2)cc1)(C(C)C)n1ccnc1` (racemic) [Compound 761], in experiment [1], the IC50 is above 100 nM. Further, the “LAD (lowest active dose)” value in the experiment on Ovariectomized rats was above 5.00 mg/kg.

For `CCC(CC)C(O)(c1ccc(NC(C)=O)cc1)c1cncn1C` (racemic) [Compound 772], the IC50 in experiment [1] is 0.146 nM. Besides, the “LAD (lowest active dose)” value in the experiment on Ovariectomized rats is above 5.00 mg/kg.

In the case of `CCC(CC)C(c1ccc(NC(=O)C(O)c2ccc(Cl)cc2)cc1)n1cncn1` (single isomer, unassigned) [Compound 21], the IC50 in experiment [1] is 2.89 nM. In the experiment on Ovariectomized rats, the “LAD (lowest active dose)” value worked out at 5.00 mg/kg.

For the molecule `CCOc1ccc(CCC(=O)Nc2ccc(C(C(CC)CC)n3ccnc3)cc2)cc1` (single isomer, unassigned) [Compound 61], the IC50 in experiment [1] was found to be 0.734 nM. In the experiment with Ovariectomized rats, the “LAD (lowest active dose)” value was found to be 2.50 mg/kg.

As for `CCC(CC)C(c1ccc(NC(=O)Cc2ccc(OC)c(C)c2)cc1)n1cncn1` (single isomer, unassigned) [Compound 85], the IC50 in experiment [1] amounted to 3.92 nM. Besides, in the experiment on Ovariectomized rats, the “LAD (lowest active dose)” value turned out to be 2.50 mg/kg.

`CCC(CC)C(c1ccc(NC(=O)Cc2ccc(OC)c(C)c2)cc1)n1cncn1` (single isomer, unassigned) [Compound 86]: the IC50 in experiment [1] was 0.497 nM. In addition, the “LAD (lowest active dose)” value in the experiment on Ovariectomized rats is listed as 2.50 mg/kg.

Regarding `COc1ccc(CC(=O)Nc2ccc(C(C(C)N(C)C)n3cncn3)cc2)cc1Cl` (single isomer, unassigned) [Compound 288], in experiment [1], the IC50 was 1.28 nM. Also, the “LAD (lowest active dose)” value in the experiment on Ovariectomized rats is above 2.50 mg/kg.

On to `CC(C(c1ccc(NC(=O)Cc2ccc(O)c(Cl)c2)cc1)n1cncn1)N(C)C` (single isomer, unassigned) [Compound 289], for which, in experiment [1], the IC50 was found to be 0.507 nM. Besides, the “LAD (lowest active dose)” value in the experiment on Ovariectomized rats was above 2.50 mg/kg.

With `Cc1cc(CC(=O)Nc2ccc(C(C(C)N(C)C)n3cncn3)cc2)cc(C)c1C` (single isomer, unassigned) [Compound 290], the IC50 in experiment [1] turned out to be 1.14 nM. Besides, the “LAD (lowest active dose)” value in the experiment with Ovariectomized rats stood at 2.50 mg/kg.

For `Cc1cc(CC(=O)Nc2ccc(C(C(C)N(C)C)n3cncn3)cc2)cc(C)c1C` (single isomer, unassigned) [Compound 291], in experiment [1], the IC50 was determined as 4.23 nM. Besides, the “LAD (lowest active dose)” value in the experiment on Ovariectomized rats is above 2.50 mg/kg.

Take `COc1cc(CC(=O)Nc2ccc(C(C(C)N(C)C)n3cncn3)cc2)cc(OC)c1OC` (single isomer, unassigned) [Compound 292]: in experiment [1], the IC50 is 0.137 nM. The “LAD (lowest active dose)” value in the experiment with Ovariectomized rats is reported as above 2.50 mg/kg.

For `CCOc1ccc(CC(=O)Nc2ccc(C(C(C)N(C)C)n3cncn3)cc2)cc1OCC` (single isomer, unassigned) [Compound 293], the IC50 in experiment [1] came out at 6.53 nM. The “LAD (lowest active dose)” value with Ovariectomized rats is above 2.50 mg/kg.

As for `COc1cc(CC(=O)Nc2ccc(C(C(C)N(C)C)n3cncn3)cc2)ccc1Cl` (single isomer, unassigned) [Compound 297], the IC50 in experiment [1] amounted to 0.786 nM. Further, the “LAD (lowest active dose)” value with Ovariectomized rats is above 2.50 mg/kg.

With `CCOc1ccc(CC(=O)Nc2ccc(C(C(C)N(C)C)n3ccnc3)cc2)cc1OCC` (single isomer, unassigned) [Compound 301], in experiment [1], the half-maximal inhibitory concentration (IC50) amounted to 6.05 nM. The “LAD (lowest active dose)” value in the experiment with Ovariectomized rats was above 2.50 mg/kg.

For `Cc1ccc(CC(=O)Nc2ccc(C(C(C)N(C)C)n3ccnc3)cc2)cc1C` (single isomer, unassigned) [Compound 306], in experiment [1], the IC50 was 1.26 nM. Also, the “LAD (lowest active dose)” value in the experiment with Ovariectomized rats was above 2.50 mg/kg.

As to `CC(C(c1ccc(NC(=O)Cc2ccc(O)c(Cl)c2)cc1)n1ccnc1)N(C)C` (single isomer, unassigned) [Compound 307], the IC50 in experiment [1] stood at 0.701 nM. In the experiment with Ovariectomized rats, the “LAD (lowest active dose)” value was above 2.50 mg/kg.

In the case of `Cc1cc(CC(=O)Nc2ccc(C(C(C)N(C)C)n3ccnc3)cc2)cc(C)c1C` (single isomer, unassigned) [Compound 309], in experiment [1], the IC50 was determined as 3.65 nM. For the same molecule, the “LAD (lowest active dose)” value in the experiment with Ovariectomized rats is recorded as above 2.50 mg/kg.

For the molecule `COc1cc(CC(=O)Nc2ccc(C(C(C)N(C)C)n3ccnc3)cc2)ccc1Cl` (single isomer, unassigned) [Compound 311], the IC50 in experiment [1] was 0.664 nM. The “LAD (lowest active dose)” value in the experiment on Ovariectomized rats worked out at 2.50 mg/kg.

As to `COc1ccc(CC(=O)Nc2ccc(C(C(C)N(C)C)n3ccnc3)cc2)cc1C` (single isomer, unassigned) [Compound 313], the IC50 in experiment [1] is 0.02 nM. Also, the “LAD (lowest active dose)” value with Ovariectomized rats stood at 2.50 mg/kg.

Consider `CC(C)Oc1ccc(CC(=O)Nc2ccc(C(C(C)N(C)C)n3ccnc3)cc2)cc1` (single isomer, unassigned) [Compound 316], for which the IC50 in experiment [1] turned out to be 4.06 nM. For the same molecule, the “LAD (lowest active dose)” value in the experiment on Ovariectomized rats was 5.00 mg/kg.

As to `CC(C(c1ccc(NC(=O)Cc2ccc3c(c2)OCO3)cc1)n1cncn1)N(C)C` (single isomer, unassigned) [Compound 330], in experiment [1], the IC50 was 1.82 nM. The “LAD (lowest active dose)” value in the experiment with Ovariectomized rats came to 2.50 mg/kg.

A word on the IC50: it is the point on the concentration scale where inhibition reaches its midpoint.
